Results on 12 molecules are retold here after US6916800B2, “Combination therapy including a matrix metalloproteinase inhibitor and an antineoplastic agent” (Pfizer Inc, priority 1998, dated 2005).

In one data set the test system is Primary tumors. The settings on record: cited from earlier work.
The next data set deals with MX-1 breast tumor. The data set is described as follows: Breast Tumor Model: MX-1 with Compound M14 and Taxol, tumor volume. It is filed as in vivo, nude mice. The settings on record: for Tumor Volume at Day 25: MX-1 model, nude mice. The method, then: This study was carried out essentially as PC-3 model. MX-1 breast tumor pieces were implanted (with a trocar) into nude mice with n=10 per group. Dosing with Compound M14 (10 mpk or 50 mpk, PO bid) was initiated when the tumors reached a size of 60-120 mg. Dosing was continued for 26 days. Taxol was administered at a dose of 9 mpk for the first five days following the start of dosing by the interperitonal route. The tumors were measured using a caliper and the volume calculated using the formula for the volume of an elipsoid.

The subject of the next data set is SK-mes tumors. The data set is described as follows: SK-mes Tumor with Taxol: MMPI BID, endpoint 1.0 g. Type of data set: in vivo, Mice. The method, then:
5. SK-mes Tumor with Taxol
Mice were implanted with SK-mes tumors and allowed to grow to 50-100 mg. The animals were pair matched and this was considered Day 1. Treatment with MMPI was begun BID on Day 1 until the end of the experiment. Taxol was injected IP (18 or 9 mpk) QD for 5 days (days 1-5). Tumors were measured weekly until an endpoint of 1.0 g was reached.

For data set [1] the following is noted: doses of 15 mg/kg/day; cited from earlier work.
For the next data set, the system named is colonic epithelia. The settings on record: variety of cell model systems including colonic epithelia; cited from earlier work.
The conditions of data set [2]: dose dependent at 27, 125 and 375 µg; cited from earlier work.
The conditions of data set [3]: dose of 25 mg/kg/day; cited from earlier work.
The next data set concerns HT-29 tumors. In words: HT-29 Tumor with Irinotecan: MMPI BID, endpoint 1.0 g. Type of data set: in vivo, Mice. The method, then:
6. HT-29 Tumor with Irinotecan
Mice were implanted with HT-29 tumors and allowed to grow to 50-100 mg. The animals were pair matched and this was considered Day 1. Treatment with MMPI was begun BID on Day 1 until the end of the experiment. Irinotecan was injected IP (100 or 50 mpk) QD for 5 days (days 1-5). Tumors were measured weekly until an endpoint of 1.0 g was reached.

Data set [4] has as its system MX-1 tumors. In words: MX-1 Adjuvant Model: cyclophosphamide then MMPI, mean days to tumor weight of 1.5 g. Type of data set: in vivo, Mice.
Procedure: Mice were implanted with MX-1 tumors and allowed to grow to 50-100 mm3. The animals were dosed with cyclophosphamide (100 or 80 mpk). This was considered Day 1. Two weeks later the animals were pair matched after tumor regression and dosing BID with the MMPI was begun until the end of the experiment. Tumors were measured weekly.
The conditions of data set [5]: 50 mg/kg bid. p.o.; cited from earlier work.
A further data set relates to melanoma. To be noted: 100 mg/kg; cited from earlier work.
The next data set relates to PC-3 tumor cells. In words: Pancreatic Cell (PC-3) Model: MMP inhibitor with cisplatin, tumor volume. It is filed as in vivo. To be noted: PC3 model, n=10. The procedure:
1. Pancreatic Cell (PC-3) Model:
In this study, the test groups were a vehicle control, Compound M14, Compound M14 with cisplatin and cisplatin alone with n=10 for each group. The tumors were measured with a caliper and the volume calculated using the formula for the volume of an elipsoid. The cisplatin dose was 10 mpk administered by the intraperitonal route on day 8 post injecion of tumor cells Compound M14, 50 mpk, was first administered about 6:00 pm the evening of the same day that the tumor cells were injected in the morning. The same dose of Compound M14 was administered bid for each following day. Tumor volume (mm^3) was measured on day 25.

The subject of data set [6] is MX-1 tumors. The data set is described as follows: MX-1 Breast Tumor with Taxol: MMPI BID, endpoint 1.5 g. Type of data set: in vivo, Mice. The settings on record: MX-1 tumor. The procedure: MDS=mean days to tumor weight of 1.5 g 4. MX-1 Breast Tumor with Taxol:
Mice were implanted with MX-1 tumors and allowed to grow to 50-100 mg. The animals were pair matched and this was considered Day 1. Treatment with MMPI was begun BID on Day 1 until the end of the experiment. […] Tumors were measured weekly until an endpoint of 1.5 g was reached.

Data set [7] has as its system advanced, rapidly progressive, treatment-refractory solid tumor cancers (colorectal, pancreatic, ovarian, prostate). To be noted: cited from earlier work.
Where [8] appears, read: mmpi alone, Compound M14 20 mpk BID.
Where [9] appears, read: mmpi alone, Compound M14 100 mpk BID.
The mark [10] stands for this setting: taxol 9 mpk + Compound M14 20 mpk BID.
Setting [11] is: taxol 9 mpk + Compound M14 100 mpk BID.
[12] abbreviates: taxol 18 mpk + Compound M14 20 mpk BID.
The mark [13] stands for this setting: taxol 18 mpk + Compound M14 100 mpk BID.

As to endostatin, the toxicity result with Primary tumors (in vivo) is on record as “not observed”. The primary tumor response entry with Primary tumors (non-refolded suspensions) is listed as “regressed to dormant microscopic lesions”.

Regarding `CC(=O)O[C@H]1C(=O)[C@@]2(C)[C@H]([C@H](OC(=O)c3ccccc3)[C@]3(O)C[C@H](OC(=O)[C@H](O)[C@@H](NC(=O)c4ccccc4)c4ccccc4)C(C)=C1C3(C)C)[C@]1(OC(C)=O)CO[C@@H]1C[C@@H]2O` [Taxol, reference compound], the “Tumor Volume at Day 25” value in the data set with MX-1 breast tumor (taxol alone, 9 mpk ip first five days) was 1280 mm^3. Moreover, the “MDS (MDS = 1.0 g)” value in the data set with SK-mes tumors (taxol alone 9 mpk IP QD days 1-5) turned out to be 26.1 days; in the data set with SK-mes tumors (taxol alone 18 mpk IP QD days 1-5), 31.5 days.

Consider `C[C@H](CCC(=O)O)[C@H]1CC[C@H]2[C@@H]3[C@@H](O)C[C@@H]4C[C@H](O)CC[C@]4(C)[C@H]3CC[C@]12C` [URSO], for which the tolerability and toxicity entry in data set [1] was “extremely well tolerated and without toxicity”. In addition, in the data set with colonic epithelia, the cytotoxicity result is listed as “non cytotoxic”.

For `CC(C)(S)[C@@H](N)C(=O)O` [D-penicillamine], the “allergic encephalitis symptom scores” value in data set [2] is given as “reduced”.

As for `CC1(C)SCCN(S(=O)(=O)c2ccc(Oc3ccc(-n4ccnc4)cc3)cc2)[C@H]1C(=O)NO` [3(S)-N-hydroxy-4-(4-[4-(imidazol-1-yl)phenoxy]benzenesulfonyl)-2,2-dimethyl-tetrahydro-2H-1,4-thiazine-3-carboxamide], the weight loss inhibition result in [3] is “gave 97.5%”.

Consider `CCc1c2c(nc3ccc(OC(=O)N4CCC(N5CCCCC5)CC4)cc13)-c1cc3c(c(=O)n1C2)COC(=O)[C@]3(O)CC` [Irinotecan, reference compound], for which the “MDS (MDS = 1.0 g)” value with HT-29 tumors (Irinotecan alone 50 mpk IP QD days 1-5) came to 38.1 days; in the data set on HT-29 tumors (Irinotecan alone 100 mpk IP QD days 1-5), 36.7 days.

Regarding `O=P1(N(CCCl)CCCl)NCCCO1` (stereo not shown) [cyclophosphamide, reference compound], the “MDS (mean days to tumor weight of 1.5 g)” value in the data set on MX-1 tumors [4] (cyclophosphamide 80 mpk alone) came to 37.2 days; in the data set on MX-1 tumors [4] (cyclophosphamide 100 mpk alone), 39.5 days.

Take `CNC(=O)[C@H](CC1CCCCC1)NC(=O)[C@H](CC(C)C)[C@H](O)C(=O)NO` (relative stereo) [BB-1433, Butanediamide, N1-[1(cyclohexylmethyl)-2(methylamino)-2-oxoethyl]-N4,3-dihydroxy-2-(2-methylpropyl)-, [2R[N1(S*),2R*,3S*]]-]: the “bone mineral density loss” value in data set [5] is listed as “inhibited”.

For 2-Pyrolylthiochromone, the inhibition with melanoma is given as 37%.

Consider `N.N.[Cl][Pt][Cl]` [cisplatin, Platinum, diamminedichloro-, (SP-4-2)-, reference compound], for which the “Tumor Volume at Day 25” value in the data set with PC-3 tumor cells (cisplatin alone, 10 mpk intraperitoneal on day 8) is on record as 630 mm^3.

On to `C#CCN1CCC(C(=O)NO)(S(=O)(=O)c2ccc(Sc3ccccc3)cc2)CC1.Cl` [Compound M14, N-hydroxy-4-[[4-(phenylthio)phenyl]sulfonyl]-1-(2-propynyl)-4-piperidinecarboxamide monohydrochloride], for which the “response (tumor volume)” value in the data set with MX-1 breast tumor (Compound M14 10 mpk or 50 mpk PO bid for 26 days with Taxol 9 mpk for the first five days) is recorded as “improved response”. In addition, the “Tumor Volume at Day 25” value came to 240 mm^3 in the data set with MX-1 breast tumor (Compound M14 @ 10 mpk + taxol @ 9 mpk); 960 mm^3 in the data set on MX-1 breast tumor (Compound M14 @ 10 mpk PO bid alone); 480 mm^3 in the data set with MX-1 breast tumor (Compound M14 @ 50 mpk + taxol @ 9 mpk); 1260 mm^3 with MX-1 breast tumor (Compound M14 @ 50 mpk PO bid alone); 110 mm^3 with PC-3 tumor cells (Compound M14 50 mpk bid with cisplatin 10 mpk ip day 8); 480 mm^3 with PC-3 tumor cells (Compound M14 alone, 50 mpk bid). Further, the “MDS (MDS = 1.0 g)” value is 36.1 days in the data set on HT-29 tumors (Irinotecan 50 mpk + Compound M14 20 mpk BID); 44.4 days in the data set on HT-29 tumors (Irinotecan 50 mpk + Compound M14 100 mpk BID); 40.6 days with HT-29 tumors (Irinotecan 100 mpk + Compound M14 20 mpk BID); 51.4 days in the data set with HT-29 tumors (Irinotecan 100 mpk + Compound M14 100 mpk BID); 36 days in the data set with HT-29 tumors (setting [8]); 37.9 days with HT-29 tumors (setting [9]). In addition, the “MDS (MDS = 1.0 g)” value was determined as 18 days in the data set on SK-mes tumors (setting [8]); 24.7 days in the data set with SK-mes tumors (setting [9]); 34.1 days with SK-mes tumors (setting [10]); 34.8 days in the data set with SK-mes tumors (setting [11]); 39.5 days in the data set on SK-mes tumors (setting [12]); 43 days with SK-mes tumors (setting [13]). Also, the “MDS (MDS = 1.5 g)” value in the data set on MX-1 tumors [6] (setting [8]) stood at 34.7 days; with MX-1 tumors [6] (setting [9]), 32.2 days; with MX-1 tumors [6] (setting [10]), 39.3 days; with MX-1 tumors [6] (setting [11]), 46.7 days; with MX-1 tumors [6] (setting [12]), 59.3 days; with MX-1 tumors [6] (setting [13]), 61 days. For the same molecule, the “MDS (MDS = 1.5 g)” value in the data set with MX-1 tumors [6] (taxol + mmpi as printed, taxol 9 mpk IP QD days 1-5, no MMPI dose printed) amounted to 30.1 days; in the data set on MX-1 tumors [6] (taxol + mmpi as printed, taxol 18 mpk IP QD days 1-5, no MMPI dose printed), 56 days. Further, the “MDS (mean days to tumor weight of 1.5 g)” value is reported as 53.9 days in the data set on MX-1 tumors [4] (cyclophosphamide 0 mpk (so in the source), then Compound M14 200 mpk BID); 44.2 days with MX-1 tumors [4] (cyclophosphamide 80 mpk, then Compound M14 50 mpk BID); 43.7 days in the data set with MX-1 tumors [4] (cyclophosphamide 100 mpk, then Compound M14 50 mpk BID); 52.7 days with MX-1 tumors [4] (cyclophosphamide 100 mpk, then Compound M14 200 mpk BID).

For the molecule `CNC(=O)[C@@H](NC(=O)[C@H](CC(C)C)[C@H](O)C(=O)NO)C(C)(C)C` (relative stereo) [marimastat, N4-[2,2-dimethyl-1-[(methylamino)carbonyl]propyl]-N1,2-dihydroxy-3 (2-methylpropyl)-, [2S-[N4(R*),2R*,3S*]]-)], in data set [7] (clinical trials), the “most common drug-related toxicity” value is “musculoskeletal pain and stiffness”. Besides, in data set [7] (patients, Phase I/II), the “rise of cancer-specific antigens used as surrogate markers for biological activity” value was “dose-related reduction”.
